Results published in publication PMC5244253, “Phloretin Attenuates Listeria monocytogenes Virulence Both In vitro and In vivo by Simultaneously Targeting Listeriolysin O and Sortase A” (Frontiers in Cellular and Infection Microbiology, 2017).
≈ marks a conversion by molar mass, not a printed value. Where two headings read alike, the source gives them in different places.

Assays:
Caco-2 cells = assay: Cytotoxicity of phloretin in Caco-2 cells; format: cell-based; settings: phloretin treatment alone
I103A = target: T1, I103A (Listeria monocytogenes serovar 1/2a, UniProt Q8Y8H5, I175A); assay: Fluorescence-quenching binding constant (I103A); settings: fluorescence-quenching spectroscopy, read-out: binding constant KA (converted)
T1 construct: GST (inferred from vector pGEX-6P-1) (N); made in house
T1 sequence (Q8Y8H5 71-222 I175A): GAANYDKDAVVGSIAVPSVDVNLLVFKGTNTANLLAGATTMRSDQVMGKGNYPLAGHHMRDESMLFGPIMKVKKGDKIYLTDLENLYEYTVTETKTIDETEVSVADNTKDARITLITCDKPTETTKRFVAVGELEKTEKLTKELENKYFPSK
Experimental: (§1) The binding constant (KA) for phloretin with SrtA was measured using a fluorescence-quenching method. A 280-nm excitation wavelength with a 5-nm band-pass and a 345-nm emission wavelength with a 10-nm band-pass were used for the measurements. The details of the protocol used to perform the measurements were as previously described (Bandyopadhyay et al., [2002]; Jurasekova et al., [2009]).

listeriolysin O (LLO) = target: T2, listeriolysin O (LLO) (Listeria monocytogenes serovar 1/2a, UniProt P13128); assay: Hemolysis assay of L. monocytogenes culture supernatants; format: cell-based
T2 construct: endogenous in cells; host or cells: L. monocytogenes EGDe wild-type strain BUG 1600
T2 sequence (P13128 25-529): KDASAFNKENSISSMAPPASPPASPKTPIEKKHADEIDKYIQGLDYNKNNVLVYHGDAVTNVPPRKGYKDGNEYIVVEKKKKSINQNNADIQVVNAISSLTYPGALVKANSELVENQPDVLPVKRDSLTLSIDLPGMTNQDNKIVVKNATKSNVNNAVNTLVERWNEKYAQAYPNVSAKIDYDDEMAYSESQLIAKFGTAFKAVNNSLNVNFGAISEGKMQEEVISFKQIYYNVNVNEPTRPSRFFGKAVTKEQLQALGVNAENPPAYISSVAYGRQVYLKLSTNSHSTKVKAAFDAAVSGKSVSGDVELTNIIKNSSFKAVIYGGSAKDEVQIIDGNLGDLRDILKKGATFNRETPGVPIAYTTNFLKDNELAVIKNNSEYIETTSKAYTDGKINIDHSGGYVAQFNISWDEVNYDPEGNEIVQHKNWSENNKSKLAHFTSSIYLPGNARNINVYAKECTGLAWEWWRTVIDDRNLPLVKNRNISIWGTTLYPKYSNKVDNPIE
Experimental: Overnight cultures of EGDe were enlarged and cultured into fresh TSB (1:100) at 37°C for 2 h with shaking and then treated with various concentrations of phloretin until the optical density (OD) at 600 nm reached 2.0, at which point they were harvested (8000 g, 5 min). The bacterial culture supernatants were incubated with rabbit erythrocytes (final concentration of 2.5%) in PBS (35 mM Na3PO4, 125 mM NaCl, 0.5 mg/mL BSA, pH 5.5) at 37°C for 30 min, and then the hemolytic activity of each sample was determined by measuring the release of hemoglobin in supernatants at an OD of 543 nm after centrifugation (8000 g, 1 min).
To examine the direct effect of phloretin on hemolysis induced by bacterial culture supernatants, the hemolytic activities of bacterial culture supernatants pre-incubated with various concentrations of phloretin were determined as described above.

V129A = target: T3, V129A (Listeria monocytogenes serovar 1/2a, UniProt Q8Y8H5, V201A); assay: Fluorescence-quenching binding constant (V129A); settings: fluorescence-quenching spectroscopy, read-out: binding constant KA (converted)
T3 construct: GST (inferred from vector pGEX-6P-1) (N); made in house
T3 sequence (Q8Y8H5 71-222 V201A): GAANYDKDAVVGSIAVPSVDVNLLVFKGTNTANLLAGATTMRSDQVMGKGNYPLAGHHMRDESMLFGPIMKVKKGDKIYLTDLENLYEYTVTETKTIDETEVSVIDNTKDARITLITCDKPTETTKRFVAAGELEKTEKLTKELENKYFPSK
Experimental: as §1

[1] = Toxicity of phloretin in healthy (uninfected) mice; format: in vivo, BALB/c mice
Experimental: (§2) Overnight cultures of L. monocytogenes were enlarged by culturing into fresh TSB (1:100) at 37°C with shaking until the OD at 600 nm reached 1.0, at which point they were harvested. The cell pellets were washed and suspended in normal saline. To establish an infection model, 200 μL prepared bacterial suspension (1 × 10^8 CFU/ml) was intraperitoneally inoculated into BALB/c mice. The infected mice in the treatment group were subcutaneously administered 150 mg/kg of phloretin 2 h after infection and again at 8-h intervals. The infected mice in the […] group were injected with an equal volume of dimethyl sulfoxide (DMSO) at the same time points. Finally, a group of healthy mice received only phloretin to examine the toxicity of the drug. Each group had 10 mice, and the therapeutic trial lasted for 96 h; survival statistics were collected throughout this period.
(§3) For histopathologic analysis, the mice were euthanized with anesthesia following cervical dislocation at 48 h post-infection. Liver and spleen tissues were removed, fixed with formalin, embedded in paraffin, stained with hematoxylin and eosin and visualized by light microscopy. To analyze the bacterial burden in tissue, the liver and spleen tissues collected from the sacrificed mice were weighed, lysed in 2% Triton X-100 and inoculated onto TSB agar plates at 37°C overnight.

L. monocytogenes [2] = assay: Mouse model of L. monocytogenes infection; format: in vivo, BALB/c mice
Experimental: Female 6- to 8-week-old BALB/c mice were purchased from Liao Ning Chang Sheng Biotechnology Co., LTD. The mice used for the experiments were housed and handled in accordance with the guidelines established by the United States National Institutes of Health. These studies were reviewed and approved by the Institutional Animal Care and Use Committee of Jilin University.
as §2, §3

L. monocytogenes EGDe = assay: Susceptibility assays (MIC, growth curve)
LLO = format: cell-based, Listeria monocytogenes
[3] = tested on: L. monocytogenes invasion into Caco-2 cells; assay: L. monocytogenes invasion into Caco-2 cells (CFU assay, immunostaining); format: cell-based, Listeria monocytogenes; settings: EGDeΔsrtA co-treated or pre-treated with phloretin; Caco-2, 1 h
Experimental: (§4) The Caco-2 cell line was maintained in RPMI-1640 medium with 10% fetal bovine serum, non-essential amino acids and antibiotics in a humidified atmosphere at 37°C with 5% CO2. The cells were routinely adjusted to a concentration of 3 × 10^5 cells per ml, seeded into 24-well plastic culture microplates (3 × 10^5 per microplate) and cultured for 48 h for immunostaining and the determination of intracellular bacterial growth. To assay LDH release, cell monolayers were incubated overnight in culture medium without antibiotics in 96-well plates (2 × 10^4 cells per well).
Caco-2 cells were co-cultured with L. monocytogenes at an MOI of 100. […] In each case, gentamicin (20 μg/ml) was added 30 min after bacterial internalization.
A 0.3% concentration of Triton X-100 was added to permeabilize the cells for 4 min prior to stain the total bacteria (intracellular + extracellular) with a rabbit L. monocytogenes-specific antibody (Abcam) and an Alexa Fluor 488-conjugated chicken anti-rabbit antibody (Molecular Probes).

WT-SrtA [4] = target: T4, WT-SrtA (Listeria monocytogenes serovar 1/2a, UniProt Q8Y8H5); assay: Fluorescence-quenching binding constant (WT-SrtA); design: GST (inferred from vector pGEX-6P-1) (N); made in house
T4 sequence (Q8Y8H5 71-222): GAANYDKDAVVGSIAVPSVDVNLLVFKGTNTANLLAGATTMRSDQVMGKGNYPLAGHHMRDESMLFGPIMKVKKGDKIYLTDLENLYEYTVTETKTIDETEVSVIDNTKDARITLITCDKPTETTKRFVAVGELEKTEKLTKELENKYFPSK
Experimental: as §1

T90A = target: T5, T90A (Listeria monocytogenes serovar 1/2a, UniProt Q8Y8H5, T162A); assay: Fluorescence-quenching binding constant (T90A); settings: fluorescence-quenching spectroscopy, read-out: binding constant KA (converted)
T5 construct: GST (inferred from vector pGEX-6P-1) (N); made in house
T5 sequence (Q8Y8H5 71-222 T162A): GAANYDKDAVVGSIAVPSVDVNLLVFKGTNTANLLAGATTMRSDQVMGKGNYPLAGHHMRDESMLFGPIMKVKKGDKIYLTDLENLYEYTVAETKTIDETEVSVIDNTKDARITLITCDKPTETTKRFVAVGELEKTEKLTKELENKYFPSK
Experimental: as §1

WT-SrtA [5] = target: T4, WT-SrtA; assay: Sortase A enzyme activity inhibition assay (WT-SrtA)
Experimental: Following another incubation at 37°C for 1 h, the fluorescence intensity of each sample was determined at emission and excitation wavelengths of 350 and 520 nm, respectively, in a black 96-well plate.

[6] = tested on: L. monocytogenes-induced cytotoxicity in Caco-2 cells; assay: LDH release assay of infected Caco-2 cells; format: cell-based, Listeria monocytogenes; settings: all phloretin-treated groups vs infected untreated control; 5 h, MOI 100
Experimental: as §4
Caco-2 cells grown in 96-well microplates were infected with L. monocytogenes pre-exposed or not to phloretin at a multiplicity of infection (MOI) of 100. Following infections with discriminatory concentrations of phloretin for 5 h, the LDH released into the supernatants of the co-culture system was determined using a Cytotoxicity Detection Kit (LDH; Roche, Basel, Switzerland) as previously described (Wang et al., [2015a]).

hly = assay: Agar assay and β-galactosidase activity analysis (phly-lacZ); format: cell-based, Listeria monocytogenes; settings: phly-lacZ-containing bacteria; agar assay 0–116.68 μM and β-galactosidase activity
Experimental: The phly-lacZ plasmid was a kind gift from Dr. Birgitte Kallipolitis (University of Southern Denmark) and was electroporated into EGDe cells to perform an agar assay as described previously (Kastbjerg et al., [2010]). A 25-ml aliquot of TSB agar was melted at 44°C and supplemented with X-gal (150 μg/ml) and kanamycin (50 μg/ml) before being thoroughly mixed with 1 ml of an overnight culture of bacteria containing the phly-lacZ plasmid. Nine wells were made per plate following desiccation in Class II biosafety cabinet at room temperature. A 30-μl aliquot of phloretin or benzalkonium bromide at varying concentrations was added to each well. The plates were incubated for 48 h at 37°C. The β-galactosidase activities of the phly-lacZ-containing bacteria treated with various concentrations of phloretin were quantitatively determined as previously described (Larsen et al., [2006]).

L. monocytogenes [7] = settings: cited from earlier work

## O=C(CCc1ccc(O)cc1)c1c(O)cc(O)cc1O [phloretin]
Caco-2 cells
  cytotoxicity in Caco-2 cells: did not significantly induce cytotoxicity
I103A
  Kd: 17.2 µM
Listeriolysin O (LLO); co-culture with phloretin 7.3–58.34 μM, rabbit erythrocytes
  hemolytic activities of culture supernatants of L. monocytogenes EGDe cells after co-culture: dose-dependently decreased
Listeriolysin O (LLO); supernatants pre-incubated with various concentrations of phloretin
  hemolytic activities of bacterial culture supernatants after direct pre-incubation: did not affect the hemolytic activities
V129A
  Kd: 20.1 µM
[1]; 150 mg/kg s.c. at 8-h intervals, 96 h
  survival of mice treated only with phloretin, not infected: all survived
[1]; liver and spleen
  pathological changes in uninfected mice treated with phloretin: no pathological changes were observed
L. monocytogenes [2]; 2 × 10^7 CFUs i.p. per mouse, phloretin 150 mg/kg s.c. 2 h after infection and at 8-h intervals
  infected mice that had died by 96 h post-infection: 25%
L. monocytogenes [2]; 48 h post-infection
  gross pathological changes in liver and spleen of infected mice: clearly ameliorated
L. monocytogenes [2]; 48 h post-infection, liver and spleen sections
  histopathology (inflammatory lesions) in infected mice: only minor inflammatory lesions
L. monocytogenes [2]; 48 h post-infection, vs infected mice treated with DMSO
  numbers of viable bacteria colonized in the livers and spleens: significantly lower
L. monocytogenes [2]; phloretin 150 mg/kg s.c., 96 h
  survival rate vs control group treated with DMSO: significantly higher survival rate
L. monocytogenes EGDe; Listeria monocytogenes
  MIC: 933 µM (≈ 256 µg/mL)
L. monocytogenes EGDe; at the concentrations required for inhibition of LLO expression and SrtA catalytic activity, OD 600 nm
  growth of L. monocytogenes: not apparently affected
LLO
  LLO levels in bacterial culture supernatants and cell pellets: reduced in a concentration-dependent manner
[3]
  invasion of EGDeΔsrtA (CFU assay): no difference was observed
WT-SrtA [4]
  Kd: 12.6 µM
T90A
  Kd: 17.5 µM
WT-SrtA [5]
  IC50: 37.2 µM
[6]
  LDH release of EGDe-infected Caco-2 cells: decreased LDH release
hly
  transcription of hly: did not affect the transcription of hly

## O=C(/C=C/c1ccccc1)c1ccccc1 [chalcone]
L. monocytogenes [7]; inhibitor of SrtA, ref Li et al., 2016
  protection against L. monocytogenes infection in vitro and in vivo: robust protection

## O=c1c(O)c(-c2ccc(O)c(O)c2)oc2cc(O)ccc12 [fisetin]
L. monocytogenes [7]; inhibitor of LLO, ref Wang et al., 2015a
  protection against L. monocytogenes infection in vitro and in vivo: robust protection
